{
  "source": "patent US20230060715A1",
  "about": "“USE OF FXR AGONISTS FOR TREATING AN INFECTION BY HEPATITIS D VIRUS” (INSERM (INSTITUT NATIONAL DE LA SANTÉ ET DE LA RECHERCHE …, priority 2020, published 2023)",
  "key": {"HBV": {"tested_on": "HBV", "assay": "Anti-HBV activity in HBV/HDV coinfected dHepaRG cells (intracellular HBV RNAs, secreted HBs and HBe antigens)", "type": "cell-based, Hepatitis B virus", "settings": "10 μM, day 13", "description": "FIG. 1. FXRα agonist inhibits HDV replication in HBV-HDV coinfected dHepaRG cells. […] Cells and supernatants were harvested at day 13 for intracellular HBV and HDV RNA and secreted antigens quantification. Results are the mean+/−SD of two experiments performed with three biological replicates.\nThe inventors first evaluated the impact of FXRα agonists on HDV replication in in vitro coinfected dHepaRG cells. Cells were simultaneously infected with HBV and HDV. […] At day 13 post-infection, cells and supernatants were collected. The intracellular amounts of HDV and HBV RNAs were quantified as well as secreted HBe and HBs antigens.\nHBV stocks (genotype D, Genbank ID U95551) were prepared using the HepAD38 cell line according to previously described protocols^7.\nHBs and HBe antigens secreted in cells supernatant were quantified, after required dilutions, on Mini Vidas apparatus with Vidas HBs and Vidas HBE/HBET kits (bioMerieux, France) or Autobio kits (AutoBio, China) according to manufacturer's protocol.\nTotal RNA was prepared using NucleoSpin RNA Plus (Macherey-Nagel). After DNA digestion with TURBO DNase (Ambion), maximum 1000 ng RNA were reverse-transcribed using High-Capacity RNA-to-cDNA kit (Thermo Fisher Scientific). Quantitative PCR was carried out with primers HDV-F (5′-[…] -3′, SEQ ID NO: 1) and HDV-R (5′-[…] -3′, SEQ ID NO: 2) for quantification of total HDV RNA and HBV-F (5′-[…] -3′, SEQ ID NO: 3) and HBV-R (5′-[…] -3′, SEQ ID NO: 4) for quantification of pregenomic/precore HBV RNA. cDNA was analysed by quantitative PCR (qPCR) using QuantiFast SYBR® Green PCR kit (Qiagen) on LightCycler® 480 instrument (Roche) using a 45 PCR cycles. All assays were performed in triplicate. Relative quantification was determined by normalizing the expression of each gene to S9 housekeeping gene using primers S9-F (5′-[…] -3′, SEQ ID NO: 5) and S9-R (5′-[…] -3′, SEQ ID NO: 6)."}, "nascent HDV RNAs": {"tested_on": "nascent HDV RNAs", "assay": "Run-On assay of nascent HDV RNAs in HBV/HDV co-infected dHepaRG", "type": "cell-based, Hepatitis D virus", "settings": "10 μM for 4 days, 2 h labelled uridin, coinfected dHepaRG", "method": "FIG. 8. Decrease of the levels of nascent HDV RNAs in HBV/HDV co-infected dHepaRG treated with FXRα agonists. dHepaRG were co-infected with HBV (100 vge/cell) and with HDV (10 vge/cell). […] Cells were incubated with labelled uridin or not (mock-EU) for 2 h, washed and harvested. Total intracellular HDV RNAs as well as EU-labelled HDV RNAs (nascent intracellular HDV RNAs) were isolated and quantified by RT-qPCR analyses. As a control, cells were treated with actinomycin D (10 μg/mL, ActD) 20 min before incubation with labelled uridin in order to block transcription of nascent RNAs. Results are the mean+/−SD one experiment performed with three biological replicates.\nSix days post-infection, cells were treated with 10 μM of GW4064 for 4 days before Run-On experiment.\nHDV-infected HepaRG cells were incubated with labelled uridin or not (mock-EU) for 2 h, washed and harvested. Total intracellular HDV RNAs as well as EU-labelled HDV RNAs (nascent intracellular HDV RNAs) were isolated using the Click-iT™ Nascent RNA Capture Kit (Thermofisher Scientific) according to the manufacturer's instruction. As a control, cells were treated with 10 μg/mL of actinomycin D 20 min before incubation with labelled uridin in order to block transcription of nascent RNAs."}, "[1]": {"tested_on": "HDV antigens (HDAg-L, HDAg-S)", "settings": "superinfected PHH, Western Blot densitometry normalized to B-tubulin", "experimental": "PHH were infected with HBV at a MOI of 100 GE/cell and 4 days later with HDV at a MOI of 10 GE/cell. […] Cells and supernatants were harvested at day 14 post HBV infection for intracellular HDV RNA quantification and lysed for protein extraction and WB analyses. Graphs represent the densitometry analyses of the respective blots and results are presented as ratios of HDAgs normalized to the levels of B-tubulin.\n(§1) Cells were harvested in RIPA lysis buffer (NaCl 150 mM, Tris HCl pH=8.0 50 mM, SDS 0.1%, NP40 1%, Na Deoxycholate 0.5%) containing protease inhibitors (Protein Cocktail Inhibitors from Sigma-Aldrich, NaF 10 mM, Na Orthovanadate 10 mM). Clarified lysates were subjected to 10% SDS-PAGE and Western Blot transfer onto PVDF or nitrocellulose membranes using the TransTurbo Blot apparatus according to the manufacturer (Biorad). Primary antibodies are the HDVAg antibody (kind gift of Dr Alain Kay) and the beta-tubulin antibody (Abcam). Secondary HRP antibodies were purchased from Sigma-Aldrich. HRP signal detection was determined electronically using Ozyme—Syngene PXi Image system and parameters set strictly below the saturation point."}, "HDV [2]": {"tested_on": "HDV", "assay": "HDV replication in HBV/HDV coinfected dHepaRG cells (intracellular HDV RNA, RT-qPCR)", "type": "cell-based, Hepatitis D virus", "settings": "10 μM, treated day 3 to 13 post-infection", "method": "The HepaRG cell line derived from a human cellular hepato carcinoma can differentiate and regain many phenotypic traits of hepatocytes after 4 weeks of culture under defined conditions^1. HepaRG cells were cultured, differentiated, and infected by HBV and HDV as previously described^2,3.\nTotal RNA was prepared using NucleoSpin RNA Plus (Macherey-Nagel). After DNA digestion with TURBO DNase (Ambion), maximum 1000 ng RNA were reverse-transcribed using High-Capacity RNA-to-cDNA kit (Thermo Fisher Scientific). […] All assays were performed in triplicate."}, "HDV [3]": {"tested_on": "HDV", "assay": "HDV replication in HDV monoinfected dHepaRG cells (total HDV RNA, RT-qPCR)", "type": "cell-based, Hepatitis D virus", "settings": "day 4 to 11 post-infection", "method": "FIG. 6. FXRα agonists inhibit HDV replication in monoinfected dHepaRG cells.\nTotal RNA was prepared using NucleoSpin RNA Plus (Macherey-Nagel). After DNA digestion with TURBO DNase (Ambion), maximum 1000 ng RNA were reverse-transcribed using High-Capacity RNA-to-cDNA kit (Thermo Fisher Scientific). […] . All assays were performed in triplicate."}, "HDV genomic RNA": {"tested_on": "HDV genomic RNA", "assay": "HDV genomic RNA in HDV monoinfected dHepaRG cells (Northern Blot)", "settings": "day 4 to 11 post-infection", "experimental": "Differentiated HepaRG cells were infected with HDV at a MOI of 25 GE/cell. From day 4 to day 11 post-infection, cells were treated with 1 or 10 μM of GW4064, 10 μM of 6-ECDCA and 1 μM of tropifexor. At day 11 post HDV infection, cells were collected and HDV genomic RNA was analyzed by Northern Blot.\nTo determine if FXRα-mediated inhibition of HDV was independent of HBV, the inventors analyzed the impact of FXRα agonists in HDV mono-infected dHepaRG cells.\nTotal RNA was extracted from infected cells using Tri Reagent® (TR118, Molecular Research Center). […] After electrotransfer to charged nylon membranes (Roche), genomic HDV RNA sequences were detected by using a strand-specific RNA probe synthesized using the Dig RNA Labeling kit (Sp6/T7) (Roche) and DIG luminescent detection kit (Roche) accordinng to the manufacturer's instruction. Quantification of signals were done with ImageLab.\nAs an internal control for the amount and quality of the extracted RNA, the membrane was stripped and rehybridized by using labeled oligonucleotides specific for human 18S rRNA and 28S rRNA."}, "HDV particles": {"tested_on": "HDV particles", "assay": "Specific infectivity of secreted HDV particles on naïve Huh7.5-NTCP cells", "settings": "6 days post infection", "experimental": "(A) Supernatants of infected dHepaRG cells were collected, concentrated by PEG precipitation and the levels of extracellular HDV RNAs were assessed by qRT-PCR analyses. (B-C) Naïve HuH7.5-^NTCP cells were infected with the different concentrated supernatants with (B) 500 vge/cell or (C) as indicated. Six days later, levels of intracellular HDV RNAs were assessed by RT-qPCR analyses. Results of RT-qPCR are the mean+/−SD of three independent experiments each performed with three biological replicates.\nFinally, naïve Huh7.5-^NTCP cells were infected with the same concentrated supernatants but using two different HDV inoculum, 100 and 500 vge/cell, for each condition.\n(§2) For analysis of HDV virion specific infectivity, supernatants from dHepaRG infected with both HBV and HDV were concentrated using 8% PEG 8000. HDV RNA was quantified by RT-qPCR in concentrates and Huh7.5^NTCP cells were infected using same viral genome equivalents (vge) of concentrated virus for each condition of treatment. Six days post infection, total cellular RNA was extracted and HDV RNA was quantified by RT-qPCR."}, "HDV [4]": {"tested_on": "HDV", "assay": "Secretion of HDV RNA from HBV/HDV coinfected dHepaRG cells (RT-qPCR of concentrated supernatants)", "settings": "10 μM for 10 days", "experimental": "(A) Supernatants of infected dHepaRG cells were collected, concentrated by PEG precipitation and the levels of extracellular HDV RNAs were assessed by qRT-PCR analyses. […] Results of RT-qPCR are the mean+/−SD of three independent experiments each performed with three biological replicates.\nas §2"}, "[5]": {"settings": "in vivo; cited from earlier work"}, "HDV [6]": {"tested_on": "HDV", "assay": "HDV replication in HBV-infected PHH super-infected with HDV (intracellular HDV RNA, RT-qPCR)", "type": "cell-based, Hepatitis D virus", "settings": "7 days treatment, superinfected PHH"}, "[7]": {"tested_on": "HDV antigens (HDAg-L, HDAg-S)", "settings": "superinfected dHepaRG, Western Blot densitometry normalized to B-tubulin", "experimental": "Differentiated HepaRG cells were infected with HBV at a MOI of 100 GE/cell and 7 days later with HDV at a MOI of 10 GE/cell. […] Cells were harvested at day 17 post HBV infection and lysed for protein extraction and WB analyses. Graphs represent the densitometry analyses of the respective blots and results are presented as ratios of HDAgs normalized to the levels of B-tubulin.\nas §1"}, "HDV [8]": {"tested_on": "HDV", "assay": "HDV replication in HBV-infected dHepaRG super-infected with HDV (intracellular HDV RNA, RT-qPCR)", "type": "cell-based, Hepatitis D virus", "settings": "7 days treatment, superinfected dHepaRG"}},
  "note": "Like-named read-outs stand apart in the source and are kept apart here.",
  "data": [
    {"smiles": "CC(C)c1onc(-c2c(Cl)cccc2Cl)c1COc1ccc(/C=C/c2cccc(C(=O)O)c2)c(Cl)c1", "note": "[GW4064, 3-[2-[2-Chloro-4-[[3-(2,6-dichloro-phenyl)-5-(1-methylethyl)-4-isoxazolyl]methoxy]phenyl]ethenyl] benzoic acid]", "values": [
      {"measurement": "anti-HBV activity on amount of intracellular HBV RNAs", "setting": "HBV", "value": "verified"},
      {"measurement": "anti-HBV activity on secreted HBe antigen", "setting": "HBV", "value": "verified"},
      {"measurement": "anti-HBV activity on secreted HBs antigen", "setting": "HBV", "value": "verified"},
      {"measurement": "synthesis of nascent HDV RNA", "setting": "nascent HDV RNAs", "value": "able to inhibit"},
      {"measurement": "reduction of HDAg-L (large HDV antigen) amount", "setting": "[1]", "value": 75, "unit": "%"},
      {"measurement": "reduction of HDAg-S (small HDV antigen) amount", "setting": "[1]", "value": 75, "unit": "%"},
      {"measurement": "decrease of total intracellular HDV RNA", "setting": "HDV [2]", "value": 60, "unit": "%"},
      {"measurement": "decrease of total HDV RNA", "setting": "HDV [3]; 10 μM", "value": "around 60%"},
      {"measurement": "amount of genomic HDV RNA", "setting": "HDV genomic RNA; 10 μM", "value": "decreased"},
      {"measurement": "intracellular HDV RNA levels with inoculum 100 versus 500 vge/cell", "setting": "HDV particles; Huh7.5-NTCP infected with supernatants of treated dHepaRG", "value": "no significant difference"},
      {"measurement": "decrease of intracellular HDV RNA in cells infected with supernatants of treated dHepaRG", "setting": "HDV particles; producer cells treated 10 μM, Huh7.5-NTCP infected with 500 vge/cell", "value": "more than 95%"},
      {"measurement": "decrease of secreted HDV RNA", "setting": "HDV [4]", "value": 65, "unit": "%"},
      {"measurement": "bioavailability", "setting": "[5]", "value": "limited"},
      {"measurement": "decrease of total intracellular HDV RNA", "setting": "HDV [6]; 1 μM", "value": "very pronounced"},
      {"measurement": "decrease of total intracellular HDV RNA", "setting": "HDV [6]; 10 μM", "value": "≤ 45", "unit": "%"},
      {"measurement": "reduction of HDAg-L (large HDV antigen) amount", "setting": "[7]", "value": 75, "unit": "%"},
      {"measurement": "reduction of HDAg-S (small HDV antigen) amount", "setting": "[7]", "value": 75, "unit": "%"},
      {"measurement": "decrease of total intracellular HDV RNA", "setting": "HDV [8]; 1 μM", "value": "very pronounced"},
      {"measurement": "decrease of total intracellular HDV RNA", "setting": "HDV [8]; 10 μM", "value": "up to 60%"}
    ]},
    {"smiles": "O=C(O)c1cc(F)c2nc(N3[C@@H]4CC[C@H]3C[C@@H](OCc3c(-c5ccccc5OC(F)(F)F)noc3C3CC3)C4)sc2c1", "note": "[tropifexor, 2-[(1R,3r,5S)-3-({5-cyclopropyl-3-[2-(trifluoromethoxy)phenyl]-1,2-oxazol-4-yl}methoxy)-8-azabicyclo[3.2.1]octan-8-yl]-4-fluoro-1,3-benzothiazole-6-carboxylic acid]", "values": [
      {"measurement": "decrease of total HDV RNA", "setting": "HDV [3]; 1 μM", "value": "around 60%"},
      {"measurement": "amount of genomic HDV RNA", "setting": "HDV genomic RNA; 1 μM", "value": "decreased"}
    ]},
    {"smiles": "CC[C@H]1[C@@H](O)[C@@H]2[C@H](CC[C@]3(C)[C@@H]([C@H](C)CCC(=O)O)CC[C@@H]23)[C@@]2(C)CC[C@@H](O)C[C@@H]12", "note": "[6-ECDCA, 6-ethyl-cheno-deoxycholic acide]", "values": [
      {"measurement": "decrease of total HDV RNA", "setting": "HDV [3]; 10 μM", "value": "around 60%"},
      {"measurement": "amount of genomic HDV RNA", "setting": "HDV genomic RNA; 10 μM", "value": "decreased"}
    ]}
  ]
}
